Results as given in patent publication US9889184B2 (priority 2008, dated 2018).
Read-outs that look alike come from different tables or passages of the source.

Key:
Fov hyphae [1] = experiment: Uptake of FITC-labeled dextrans into NaD1-treated hyphae; assay type: cell-based, Fusarium oxysporum f. sp. vasinfectum
Method: The uptake of FITC-labeled dextran following NaD1 treatment of fungal hyphae was also studied. Fov hyphae were grown as described above and incubated with NaD1 (final concentration 0.1, 2, 10 or 50 μM) or an equivalent volume of water for 2 h at RT with gentle agitation. Hyphae were washed twice for 10 min with half-strength PDB to remove excess NaD1 before FITC dextrans of either 4 kDa (FD-4, Sigma-Aldrich) or 10 kDa (FD-10, Sigma-Aldrich) were added to a final concentration of 1 μM. Hyphae were incubated for a further 30 min at RT and then washed twice with half strength PDB to remove excess dextrans. Fluorescence microscopy was used to visualize hyphae as described for SYTOX® green. A second assay was performed under the same conditions except the dextrans were added at the same time as NaD1.

Fov hyphae [2] = experiment: Membrane permeabilization of Fov hyphae, SYTOX green uptake; assay type: cell-based, Fusarium oxysporum f. sp. vasinfectum
Method: Fov hyphae were grown in half-strength PDB (10 mL in a 50 mL tube) from a starting concentration of 5×10^4 spores/mL for 18 h at 25° C. with constant shaking. Samples (1 mL) were then removed and NaD1 (final concentration 2 μM), NaD1R&A (final concentration 2 μM) or an equivalent volume of water was added before incubation for 2 h at RT with gentle agitation. SYTOX® green (Invitrogen-Molecular Probes, Eugene, Oreg.) was added to a final concentration of 0.5 μM and the hyphae were allowed to stand for 10 min. Hyphae (20 μL) were then transferred to microscope slides (SuperFrost (Registered) Plus, Menzel-Glaser) and covered with glass coverslips for visualization of SYTOX® green uptake using an Olympus BX51 fluorescence microscope. SYTOX® green fluorescence was detected using an MWIB filter (excitation wavelength 460-490 nm). Images were captured using a SPOT RT 3CCD digital camera (Diagnostic Instruments) and processed using Adobe Photoshop. SYTOX® green uptake was quantitated by measuring fluorescence of hyphae in microtitre trays using a fluorimeter (SpectraMax M2; Molecular Devices) with excitation and emission wavelengths of 488 nm and 538 nm, respectively.
The effect of temperature on membrane permeabilization of Fov hyphae by NaD1 was monitored as described, except hyphae were pre-equilibrated for 60 min at either 10°, 4° or 0° C. before addition of NaD1 and all subsequent steps were carried out at these temperatures.
The kinetics of membrane permeabilization by NaD1 were studied. Fov hyphae were grown in half-strength PDB from a starting concentration of 5×10^4 spores/mL for 18 h at 25° C. Hyphae (80 μL) were then transferred to 96-well microtitre plates and incubated with SYTOX® green (0.5 μM) for 10 min prior to the addition of 20 μL of peptide solution to give final protein concentrations of 0.2, 0.4, 0.8, 1.6, 3.12, 6.25, 12.5, 25, 50 or 100 μM. Fluorescence readings (Ex; 488 nm, Em; 538 nm) were then taken every 2 min for 3 h using a fluorimeter (SpectraMax M2).

Fusarium graminearum = assay type: cell-based
[3] = test system: Fusarium oxysporum f. sp. vasinfectum (Fov); experiment: Growth inhibition of Fov by NaD1 (microtitre OD595); assay type: cell-based
Method: Lyophilized NaD1 (500 μg) was dissolved in 400 μL of stock buffer (200 mM Tris-HCl pH 8.0, 2 mM EDTA, 6 M guanidine-HCl, 0.02% [v/v] Tween-20). Reduction buffer (stock buffer with 15 mM dithiothreitol [DTT]) was added (44 μL) followed by a 4.5 h incubation at 40° C. The reaction mixture was cooled to RT before iodoacetic acid (0.5 M in 1 M NaOH, 55 μL) was added and the incubation continued in the dark for 30 min at RT. A Nanosep omega (Registered) spin column (3K molecular weight cut off, PALL Life Sciences) was used to remove salts, DTT and iodoacetic acid and the protein concentration was determined using the BCA protein assay (Pierce). The effect of reduced and alkylated NaD1 (NaD1R&A) on the growth of Fusarium oxysporum (Fov) was measured as described herein.
Antifungal activity against Fusarium oxysporum f. sp. vasinfectum (Fov, Australian isolate VCG01111 isolated from cotton; from Wayne O'Neill, Farming Systems Institute, DPI, Queensland, Australia), Thielaviopsis basicola (gift from David Nehl, NSW DPI, Narrabri, Australia), Verticillium dahliae (from Helen McFadden, CSIRO Plant Industry, Black Mountain, Australia), Leptosphaeria maculans (from Barbara Howlett, University of Melbourne, Victoria, Australia) and Aspergillus nidulans (from Michael Hynes, University of Melbourne) was assessed essentially as described in Broekaert et al, 1990. Spores were isolated from sporulating cultures growing in either half-strength potato dextrose broth (PDB) (Fov and T. basicola), Czapeck-Dox Broth (V. dahliae) (Difco Laboratories) or 10% (v/v) clarified V8 medium (L. maculans and A. nidulans) by filtration through sterile muslin. Spore concentrations were determined using a hemocytometer and adjusted to 5×10^4 spores/mL in the appropriate growth medium. Spore suspensions (80 μL) were added to the wells of sterile 96-well flat-bottomed microtitre plates along with 20 μL of filter-sterilized (0.22 μm syringe filter; Millipore) NaD1, or water to give final protein concentrations of 0-10 μM. The plates were shaken briefly and placed in the dark at 25° C. without shaking until the optical density at 595 nm of the water control reached approximately 0.2 (24-72 h depending on growth rate). Hyphal growth was estimated by measuring the optical density at 595 nm using a microtitre plate reader (SpectraMax Pro M2; Molecular Devices). Each test was performed in quadruplicate.

## NaD1: plant defensin isolated from floral tissue of Nicotiana alata (SEQ ID NO:12) (RECKTESNTFPGICITKPPCRKACISEKFTDGHCSKILRRCLCTKPC; Nicotiana alata (NaD1))
Fov hyphae [1]; even at very high concentrations of NaD1
  entry of 10 kDa FITC-dextran (23 Å) into NaD1-treated hyphae: excluded
Fov hyphae [1]; same NaD1 concentration that led to SYTOX green uptake
  entry of 4 kDa FITC-dextran (14 Å) into NaD1-treated hyphae: entered hyphae
Fov hyphae [2]; 0° C., compared with 4° C.
  NaD1-induced permeabilization (SYTOX green uptake): reduced even further
Fov hyphae [2]; 0.1, 2 or 10 μM NaD1 or 10 μM NaD1R&A
  permeabilization of Fov hyphal membranes (SYTOX green): permeabilized hyphae
Fov hyphae [2]; 4° C.
  NaD1-induced permeabilization (SYTOX green uptake): only a small degree of permeabilization
Fov hyphae [2]; 10° C., less than at 25° C.
  NaD1-induced permeabilization (SYTOX green uptake): substantial uptake of SYTOX® green
Fov hyphae [2]; Vmax = maximum rate of fluorescence increase
  NaD1 concentration up to which Vmax increased linearly; above it rate unchanged (saturable): 6.25 µM
Fov hyphae [2]; above it (up to 50 μM) very little difference in kinetics
  NaD1 concentration up to which the rate of permeabilization increased progressively: 3 µM
Fov hyphae [2]; all NaD1 concentrations
  lag time before permeabilization: around 20 min
  time after which fluorescence began to plateau: 90 min
Fov hyphae [2]; lowest concentration of NaD1 (0.1 μM)
  SYTOX green uptake: a small amount of SYTOX® green uptake occurred
Fusarium graminearum; 0.5 μM NaD1 combined with 0.5 μM/mL NaCys2, FIG. 3B
  toxicity with Fusarium graminearum: significantly enhanced
Fusarium graminearum; 0.5 μM NaD1 in the absence of NaCys2, FIG. 3B
  toxicity with Fusarium graminearum: very low
[3]; 1 μM NaD1, Fov
  growth retarded: 50%
[3]; 5 μM NaD1, Fov
  growth inhibited: more than 80%
[3]; 10 mM ascorbic acid
  growth inhibition of Fov by NaD1 with ROS scavenger: nor did the presence of 10 mM ascorbic acid affect growth inhibition
[3]; Fusarium oxysporum f. sp. vasinfectum
  IC50: 1 µM
[3]; NaD1 0.1 μM
  growth inhibition of Fov: no growth inhibition was observed
[3]; NaD1 concentration used for microscopy (10 μM)
  growth inhibition of Fov: > 90%
